This passage reports IC50 results from US9932314B2, “Pyrazole compounds and their use as T-type calcium channel blockers” (IDORSIA PHARMACEUTICALS LTD, priority 2015, dated 2018).

The experiment concerns the target T1, voltage-dependent T-type calcium channel subunit alpha-1G (Cav3.2) (Homo sapiens, UniProt O95180).
T1 construct: expressed in transfected cells; host or cells: HEK293
Kind of experiment: FLIPR calcium flux assay, HEK293 cells recombinantly expressing Cav3.2. Type of experiment: cell-based. Particulars: Cav3.2-channel, Fluo-4-AM, 3 min incubation, stimulation with 10 mM CaCl2. An outline of the steps:
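HEK293 cells stably expressing human Cav3.2 were loaded with Fluo-4-AM. Compounds diluted in TEAC buffer (pH 7.2) were preincubated for 3 min, then Ca2+ entry was triggered by 10 mM final CaCl2. Inhibition curves were fitted sigmoidally to the area under the fluorescence trace.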
(Calcium assays in cells follow changes in intracellular calcium, usually with a dye or a luminescent sensor.)

Usually IC50 stands for the point on the concentration scale where inhibition reaches its midpoint.

The structures appear in SMILES notation.

T1 sequence (O95180 whole entry): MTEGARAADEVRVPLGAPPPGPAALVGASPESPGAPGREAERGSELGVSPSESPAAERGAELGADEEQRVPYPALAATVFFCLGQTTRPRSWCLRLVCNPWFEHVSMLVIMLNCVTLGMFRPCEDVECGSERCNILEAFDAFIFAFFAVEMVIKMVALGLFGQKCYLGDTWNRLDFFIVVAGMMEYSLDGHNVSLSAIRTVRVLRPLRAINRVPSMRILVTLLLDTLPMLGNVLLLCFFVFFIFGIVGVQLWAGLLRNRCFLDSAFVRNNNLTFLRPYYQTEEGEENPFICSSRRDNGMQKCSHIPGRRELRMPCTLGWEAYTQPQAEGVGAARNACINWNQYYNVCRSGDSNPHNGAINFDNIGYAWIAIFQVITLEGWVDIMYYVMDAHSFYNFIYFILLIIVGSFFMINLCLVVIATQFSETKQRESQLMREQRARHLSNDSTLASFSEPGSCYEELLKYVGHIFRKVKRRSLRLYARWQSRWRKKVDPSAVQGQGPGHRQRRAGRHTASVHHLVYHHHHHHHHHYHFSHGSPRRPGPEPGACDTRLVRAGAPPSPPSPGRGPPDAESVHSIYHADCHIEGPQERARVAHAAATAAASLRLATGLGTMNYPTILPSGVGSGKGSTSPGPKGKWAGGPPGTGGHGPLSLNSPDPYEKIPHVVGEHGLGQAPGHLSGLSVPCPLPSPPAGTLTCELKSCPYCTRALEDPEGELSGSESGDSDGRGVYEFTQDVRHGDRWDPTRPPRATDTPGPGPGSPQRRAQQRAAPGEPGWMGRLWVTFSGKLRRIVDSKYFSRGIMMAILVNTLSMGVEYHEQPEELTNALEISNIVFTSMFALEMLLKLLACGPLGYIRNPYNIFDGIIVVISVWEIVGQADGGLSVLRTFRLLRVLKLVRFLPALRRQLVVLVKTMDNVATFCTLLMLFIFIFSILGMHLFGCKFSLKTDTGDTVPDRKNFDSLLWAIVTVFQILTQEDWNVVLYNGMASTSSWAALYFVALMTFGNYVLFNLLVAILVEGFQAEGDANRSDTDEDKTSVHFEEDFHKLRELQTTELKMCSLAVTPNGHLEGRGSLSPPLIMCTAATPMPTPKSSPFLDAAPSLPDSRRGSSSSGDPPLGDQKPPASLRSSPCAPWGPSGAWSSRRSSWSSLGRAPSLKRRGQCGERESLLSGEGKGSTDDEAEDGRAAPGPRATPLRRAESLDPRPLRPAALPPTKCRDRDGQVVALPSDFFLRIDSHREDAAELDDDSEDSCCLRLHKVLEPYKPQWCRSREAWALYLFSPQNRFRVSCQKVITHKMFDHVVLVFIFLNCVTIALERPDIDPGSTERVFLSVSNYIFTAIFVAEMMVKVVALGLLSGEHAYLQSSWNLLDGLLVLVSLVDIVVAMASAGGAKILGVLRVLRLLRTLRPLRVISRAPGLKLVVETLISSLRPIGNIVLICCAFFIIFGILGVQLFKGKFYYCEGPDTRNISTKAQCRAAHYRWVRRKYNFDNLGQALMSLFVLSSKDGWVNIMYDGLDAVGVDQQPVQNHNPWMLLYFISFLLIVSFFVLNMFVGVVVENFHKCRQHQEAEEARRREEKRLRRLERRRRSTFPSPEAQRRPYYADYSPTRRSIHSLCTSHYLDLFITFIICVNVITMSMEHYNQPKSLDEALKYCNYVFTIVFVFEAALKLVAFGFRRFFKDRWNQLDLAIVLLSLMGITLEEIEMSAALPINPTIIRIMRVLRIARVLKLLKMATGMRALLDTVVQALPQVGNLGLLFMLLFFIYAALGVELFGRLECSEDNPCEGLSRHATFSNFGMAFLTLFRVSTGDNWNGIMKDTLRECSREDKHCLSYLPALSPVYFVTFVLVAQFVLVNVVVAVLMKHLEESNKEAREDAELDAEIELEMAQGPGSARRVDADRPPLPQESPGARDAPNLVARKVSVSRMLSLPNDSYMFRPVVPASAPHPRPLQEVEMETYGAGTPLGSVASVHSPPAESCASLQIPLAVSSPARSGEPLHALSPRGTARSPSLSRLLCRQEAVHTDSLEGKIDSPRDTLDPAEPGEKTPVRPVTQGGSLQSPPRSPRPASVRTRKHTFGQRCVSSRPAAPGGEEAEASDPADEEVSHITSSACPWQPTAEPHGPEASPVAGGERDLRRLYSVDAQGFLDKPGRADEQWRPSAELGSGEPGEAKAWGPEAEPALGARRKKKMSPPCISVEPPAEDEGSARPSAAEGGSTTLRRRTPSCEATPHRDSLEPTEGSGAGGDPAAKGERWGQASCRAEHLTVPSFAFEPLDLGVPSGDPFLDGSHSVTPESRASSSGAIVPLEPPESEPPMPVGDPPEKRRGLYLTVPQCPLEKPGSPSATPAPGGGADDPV

On to `N#Cc1c(F)cc(Cn2ccc(NC(=O)Cc3ccc(C4(F)COC4)cc3)n2)cc1F` [Example 347, N-[1-(4-Cyano-3,5-difluoro-benzyl)-1H-pyrazol-3-yl]-2-[4-(3-fluoro-oxetan-3-yl)-phenyl]-acetamide], for which the IC50 turned out to be 85 nM. Regarding `Cc1nn(C)c2ccc(CC(=O)Nc3ccn(Cc4cc(F)c(C#N)c(F)c4)n3)cc12` [Example 348, N-[1-(4-Cyano-3,5-difluoro-benzyl)-1H-pyrazol-3-yl]-2-(1,3-dimethyl-1H-indazol-5-yl)-acetamide], the concentration for half-maximal inhibition (IC50) amounted to 29 nM. For the compound `N#Cc1c(F)cc(Cn2ccc(NC(=O)Cc3ccc(N4CCC(F)(F)C4)nc3)n2)cc1F` [Example 349, N-[1-(4-Cyano-3,5-difluoro-benzyl)-1H-pyrazol-3-yl]-2-[6-(3,3-difluoro-pyrrolidin-1-yl)-pyridin-3-yl]-acetamide], the half-inhibitory concentration (IC50) was determined as 23 nM. Then `N#Cc1c(F)cc(Cn2ccc(NC(=O)Cc3ccc(C4(C(F)(F)F)CC4)cc3)n2)cc1F` [Example 350, N-[1-(4-Cyano-3,5-difluoro-benzyl)-1H-pyrazol-3-yl]-2-[4-(1-trifluoromethyl-cyclopropyl)-phenyl]-acetamide], with 69 nM; and `N#Cc1c(F)cc(Cn2ccc(NC(=O)Cc3ccc(N4CCCC4)nc3)n2)cc1F` [Example 351, N-[1-(4-Cyano-3,5-difluoro-benzyl)-1H-pyrazol-3-yl]-2-(6-pyrrolidin-1-yl-pyridin-3-yl)-acetamide], with 65 nM; and `CC(C)(C)c1ccc(CC(=O)Nc2ccn(Cc3cc(F)c(C#N)c(F)c3)n2)cc1` [Example 352, 2-(4-tert-Butyl-phenyl)-N-[1-(4-cyano-3,5-difluoro-benzyl)-1H-pyrazol-3-yl]-acetamide], with 22 nM. Then `CC(C)c1ccc(CC(=O)Nc2ccn(Cc3cc(F)c(C#N)c(F)c3)n2)cc1` [Example 353, N-[1-(4-Cyano-3,5-difluoro-benzyl)-1H-pyrazol-3-yl]-2-(4-isopropyl-phenyl)-acetamide], with 30 nM; and `N#Cc1ccc(Cn2ccc(NC(=O)Cc3ccc(C4(C#N)CC4)cc3)n2)nc1` [Example 354, 2-[4-(1-Cyano-cyclopropyl)-phenyl]-N-[1-(5-cyano-pyridin-2-ylmethyl)-1H-pyrazol-3-yl]-acetamide], with 248 nM. Then `N#Cc1cc(Cn2ccc(NC(=O)Cc3ccc(C4(C#N)CC4)cc3)n2)ccc1F` [Example 355, 2-[4-(1-Cyano-cyclopropyl)-phenyl]-N-[1-(3-cyano-4-fluoro-benzyl)-1H-pyrazol-3-yl]-acetamide], with 26 nM. With `N#Cc1ccc(Cn2ccc(NC(=O)Cc3ccc(C4(O)CC4)cc3)n2)nc1` [Example 356, N-[1-(5-Cyano-pyridin-2-ylmethyl)-1H-pyrazol-3-yl]-2-[4-(1-hydroxy-cyclopropyl)-phenyl]-acetamide], the concentration for half-maximal inhibition (IC50) worked out at 327 nM. Consider `CCn1ncc2cc(CC(=O)Nc3ccn(Cc4cc(F)c(C#N)c(F)c4)n3)ccc21` [Example 357, N-[1-(4-Cyano-3,5-difluoro-benzyl)-1H-pyrazol-3-yl]-2-(1-ethyl-1H-indazol-5-yl)-acetamide], for which the half-maximal inhibitory concentration (IC50) was 34 nM. Then `Cc1cn(C)c2ccc(CC(=O)Nc3ccn(Cc4cc(F)c(C#N)c(F)c4)n3)cc12` [Example 358, N-[1-(4-Cyano-3,5-difluoro-benzyl)-1H-pyrazol-3-yl]-2-(1,3-dimethyl-1H-indol-5-yl)-acetamide], with 20 nM; and `COC1(c2ccc(CC(=O)Nc3ccn(Cc4cc(F)c(C#N)c(F)c4)n3)cc2)COC1` [Example 359, N-[1-(4-Cyano-3,5-difluoro-benzyl)-1H-pyrazol-3-yl]-2-[4-(3-methoxy-oxetan-3-yl)-phenyl]-acetamide], with 212 nM. The value for `N#Cc1c(F)cc(Cn2ccc(NC(=O)Cc3ccc(OCC4COC4)cc3)n2)cc1F` [Example 360, N-[1-(4-Cyano-3,5-difluoro-benzyl)-1H-pyrazol-3-yl]-2-[4-(oxetan-3-ylmethoxy)-phenyl]-acetamide] was 360 nM; that for `N#Cc1c(F)cc(Cn2ccc(NC(=O)Cc3ccc(OCC4(F)COC4)cc3)n2)cc1F` [Example 361, N-[1-(4-Cyano-3,5-difluoro-benzyl)-1H-pyrazol-3-yl]-2-[4-(3-fluoro-oxetan-3-ylmethoxy)-phenyl]-acetamide] was 80 nM; that for `CC1(COc2ccc(CC(=O)Nc3ccn(Cc4cc(F)c(C#N)c(F)c4)n3)cc2)COC1` [Example 362, N-[1-(4-Cyano-3,5-difluoro-benzyl)-1H-pyrazol-3-yl]-2-[4-(3-methyl-oxetan-3-ylmethoxy)-phenyl]-acetamide] was 117 nM. The value for `N#Cc1c(F)cc(Cn2ccc(NC(=O)Cc3ccc(OCC4CC(F)(F)C4)cc3)n2)cc1F` [Example 363, N-[1-(4-Cyano-3,5-difluoro-benzyl)-1H-pyrazol-3-yl]-2-[4-(3,3-difluoro-cyclobutylmethoxy)-phenyl]-acetamide] was 51 nM; that for `CC1(COc2ccc(CC(=O)Nc3ccn(Cc4cc(F)c(C#N)c(F)c4)n3)cc2)CC(F)(F)C1` [Example 364, N-[1-(4-Cyano-3,5-difluoro-benzyl)-1H-pyrazol-3-yl]-2-[4-(3,3-difluoro-1-methyl-cyclobutylmethoxy)-phenyl]-acetamide] was 62 nM; that for `N#Cc1nc(Cn2ccc(NC(=O)Cc3ccc(C4(C(F)(F)F)CC4)cc3)n2)ccc1F` [Example 365, N-[1-(6-Cyano-5-fluoro-pyridin-2-ylmethyl)-1H-pyrazol-3-yl]-2-[4-(1-trifluoromethyl-cyclopropyl)-phenyl]-acetamide] was 18 nM. Regarding `Cc1ccc(Cn2ccc(NC(=O)Cc3ccc(N4CCC(F)(F)C4)nc3)n2)nc1C#N` [Example 366, N-[1-(6-Cyano-5-methyl-pyridin-2-ylmethyl)-1H-pyrazol-3-yl]-2-[6-(3,3-difluoro-pyrrolidin-1-yl)-pyridin-3-yl]-acetamide], the IC50 is 147 nM.

With `Cc1cc(CC(=O)Nc2ccn(Cc3ccc(C)c(C#N)n3)n2)ccc1OCC(F)(F)F` [Example 367, N-[1-(6-Cyano-5-methyl-pyridin-2-ylmethyl)-1H-pyrazol-3-yl]-2-[3-methyl-4-(2,2,2-trifluoro-ethoxy)-phenyl]-acetamide], the half-inhibitory concentration (IC50) is 10 nM.

As for `Cc1ccc(Cn2ccc(NC(=O)Cc3ccc4c(c3)c(C)nn4C)n2)nc1C#N` [Example 368, N-[1-(6-Cyano-5-methyl-pyridin-2-ylmethyl)-1H-pyrazol-3-yl]-2-(1,3-dimethyl-1H-indazol-5-yl)-acetamide], the IC50 was 301 nM. Then `Cc1ccc(Cn2ccc(NC(=O)Cc3ccc4c(c3)c(C)cn4C)n2)nc1C#N` [Example 369, N-[1-(6-Cyano-5-methyl-pyridin-2-ylmethyl)-1H-pyrazol-3-yl]-2-(1,3-dimethyl-1H-indol-5-yl)-acetamide], with 64 nM; and `CCn1ncc2cc(CC(=O)Nc3ccn(Cc4ccc(C)c(C#N)n4)n3)ccc21` [Example 370, N-[1-(6-Cyano-5-methyl-pyridin-2-ylmethyl)-1H-pyrazol-3-yl]-2-(1-ethyl-1H-indazol-5-yl)-acetamide], with 578 nM.

Regarding `Cc1ccc(Cn2ccc(NC(=O)Cc3ccc(C(C)(C)C)cc3)n2)nc1C#N` [Example 371, 2-(4-tert-Butyl-phenyl)-N-[1-(6-cyano-5-methyl-pyridin-2-ylmethyl)-1H-pyrazol-3-yl]-acetamide], the IC50 was 13 nM. Then `Cc1ccc(Cn2ccc(NC(=O)Cc3ccc(C4(C(F)(F)F)CC4)cc3)n2)nc1C#N` [Example 372, N-[1-(6-Cyano-5-methyl-pyridin-2-ylmethyl)-1H-pyrazol-3-yl]-2-[4-(1-trifluoromethyl-cyclopropyl)-phenyl]-acetamide], with 38 nM. `Cc1ccc(Cn2ccc(NC(=O)Cc3ccc(N4CCCC4)nc3)n2)nc1C#N` [Example 373, N-[1-(6-Cyano-5-methyl-pyridin-2-ylmethyl)-1H-pyrazol-3-yl]-2-(6-pyrrolidin-1-yl-pyridin-3-yl)-acetamide]: the concentration for half-maximal inhibition (IC50) amounted to 349 nM. The value for `Cc1ccc(Cn2ccc(NC(=O)Cc3ccc(OC4CC(F)(F)C4)cc3)n2)nc1C#N` [Example 374, N-[1-(6-Cyano-5-methyl-pyridin-2-ylmethyl)-1H-pyrazol-3-yl]-2-[4-(3,3-difluoro-cyclobutoxy)-phenyl]-acetamide] was 107 nM; that for `CC(C)(c1ccc(CC(=O)Nc2ccn(Cc3ccc(C#N)cn3)n2)cc1)C(F)(F)F` [Example 376, N-[1-(5-Cyano-pyridin-2-ylmethyl)-1H-pyrazol-3-yl]-2-[4-(2,2,2-trifluoro-1,1-dimethyl-ethyl)-phenyl]-acetamide] was 20 nM. The value for `Cc1ccc(Cn2ccc(NC(=O)Cc3ccc(C4(C)CC4)cc3)n2)nc1C#N` [Example 377, N-[1-(6-Cyano-5-methyl-pyridin-2-ylmethyl)-1H-pyrazol-3-yl]-2-[4-(1-methyl-cyclopropyl)-phenyl]-acetamide] was 25 nM; that for `CC1(C)Cc2cc(CC(=O)Nc3ccn(Cc4ccc(C#N)cn4)n3)ccc2O1` [Example 378, N-[1-(5-Cyano-pyridin-2-ylmethyl)-1H-pyrazol-3-yl]-2-(2,2-dimethyl-2,3-dihydro-benzofuran-5-yl)-acetamide] was 249 nM.

Regarding `CC1(C)COc2ccc(CC(=O)Nc3ccn(Cc4ccc(C#N)cn4)n3)cc21` [Example 379, N-[1-(5-Cyano-pyridin-2-ylmethyl)-1H-pyrazol-3-yl]-2-(3,3-dimethyl-2,3-dihydro-benzofuran-5-yl)-acetamide], the IC50 came out at 658 nM. Then `CC1(C)Cc2ccc(CC(=O)Nc3ccn(Cc4ccc(C#N)cn4)n3)cc2O1` [Example 380, N-[1-(5-Cyano-pyridin-2-ylmethyl)-1H-pyrazol-3-yl]-2-(2,2-dimethyl-2,3-dihydro-benzofuran-6-yl)-acetamide], with 214 nM.
